The subject of data set [1] is preterm infants less than 30 weeks gestational age requiring mechanical ventilation or positive pressure support. As to the kind of experiment: Multi-center, double blind, placebo-controlled randomized clinical trial of iNO for prevention of BPD. The class given is in vivo, human. The text has this: It has been discovered that certain biomarkers present in premature infants are predictive of the risk of developing BPD and/or the likelihood of a therapeutic response to iNO to prevent BPD. As used herein, the term “therapeutic response to iNO” means that iNO administration increases the rate of survival without bronchopulmonary dysplasia (BPD) at 36 weeks of post menstrual age compared to the rate of survival […] at 36 weeks of post menstrual age in an untreated premature infant population. As used herein, the term “premature infant”, “preterm infant” and the like means infants born at less than 30 weeks gestational age. The biomarkers identified are of three types: a) the concentration of metabolites of NO, such as nitrite and nitrate, in blood or plasma, b) the concentration of NO in exhaled air, and c) the presence or absence of a mutation in the eNOS gene that decreases endogenous NO production, or any combination thereof.
A multi-center, double blind, placebo-controlled randomized clinical trial was conducted to examine the efficacy of iNO in preterm infants less than 30 weeks gestational age and less than 1250 grams who required mechanical ventilation or positive pressure support on days 5 to 14 after birth. […]

The subject of data set [2] is mice with eNOS deficiency. To be noted: inhaled; cited from earlier work.
Data set [3] can be described thus: LC/MS assay of total plasma nitrite and nitrate (NOx) in trial subjects. The note with it: per subject, nitric oxide treatment arm. The class given is in vivo, human. As to the method: Because of the challenge to measure free NO in systemic circulation, the PK assessment was done via plasma concentration data of NOx (nitrite and nitrate). In addition, methemoglobin (another metabolite of NO) was used as a secondary variable for PK evaluation. This evaluation was done to understand the relationship between pharmacokinetic behavior of iNO and clinical outcomes. The sampling protocol included pre-treatment time points (less than 2 hours before initiation of NO dosing), as well as a variety of time points during iNO therapy and after discontinuation of iNO therapy.
A liquid chromatographic/mass […] (LC/MS) assay method was developed and qualified for measurement NOx in human plasma. The quantitation of NOx was performed using the ^15N-stable isotope labeled nitrate as an internal standard. Nitrate reductase and NADH was added to the samples for enzymatic reduction of nitrate to nitrite in plasma. Upon completion of the reduction reaction, acetone was added to precipitate plasma proteins. The alkylating reagent, pentafluorobenzyl bromide (PFBBr), was subsequently added to the samples to convert nitrite to a chemically stable pentafluorobenzyl derivative. After completion of derivatization, plasma supernatant was injected into the LC/MS for analysis. Plasma concentrations of total nitrite and nitrate were measured and reported as NOx using this assay method. […]

The conditions of data set [4]: in vivo; cited from earlier work.
Data set [5] has as its system premature infants between 7 and 21 days of age requiring ventilator support. To be noted: decreasing concentrations from 20 ppm, minimum of 24 days; cited from earlier work.

In the case of `[N]=O` [NITRIC OXIDE, nitric oxide], the “Efficacy of iNO treatment” value in data set [1] (subjects having an average NOx concentration of about 20 or less) is given as “therapeutically effective”. In addition, the “Efficacy of iNO treatment” value in data set [1] (subjects with NOx levels from 62.3 uM to 184 uM) was “not effective”. Besides, the “Alveolar and vascular growth” value in data set [2] was “stimulated alveolar and vascular growth”. Moreover, the “Lab Test Result (plasma NOx, total nitrite and nitrate)” value in data set [3] was “<LLOQ”. Besides, the “Time before steady-state methemoglobin levels are attained” value in data set [4] is ≥ 8 h. For the same compound, in data set [5], the Pulmonary outcome was “improves the pulmonary outcome” and the “Short term adverse effects” value was “no apparent short term adverse effects”.

The record behind these values is patent US12007399B2, “Method of identifying and treating premature infants at risk for BPD” (Mallinckrodt Pharmaceuticals Ireland Limited, priority 2014, dated 2024).
